According to PMC12494543, “Identification of ALKBH6 as a nucleotide demethylase with a distinct substrate preference” (The Journal of Biological Chemistry, 2025):

Columns and labels:
ALKBH6 [1] = target: T1, ALKBH6 (Homo sapiens, UniProt Q3KRA9); assay: Intrinsic tryptophan fluorescence quenching (Stern-Volmer); format: binding; conditions: WT ALKBH6, 2OG omitted
T1 construct: His-tag; made in house
Protocol: (§1) All tryptophan fluorescence spectroscopy experiments were performed using a multimode plate reader (PerkinElmer). The excitation and emission wavelengths were fixed at 280 nm and 356 nm, respectively. To measure ALKBH6–ligand interactions, recombinant ALKBH6 (500 nM), and increasing concentrations of ligand (0–80 μM) were equilibrated in binding buffer (50 mM Hepes, pH 7.6, 300 mM KCl) for 1 h. For Stern–Volmer quenching analysis, the F0/F = 1 + KSV(L) formula was used, where, KSV is the Stern–Volmer constant, L is the concentration of the quencher, F0 and F represent the steady-state fluorescence intensities in the absence and presence of quencher, respectively. All the data were calculated with best-fit parameter values and 95% confidence intervals in GraphPad Prism software.

ALKBH6 [2] = target: T1, ALKBH6; assay: Demethylation assay by HPLC analysis; format: biochemical; conditions: substrate 250 and 500 μM, 30 min
Protocol: (§2) Following ALKBH6-mediated demethylation, NMPs and dNMPs were analyzed in an HPLC system (Shimadzu) equipped with a reversed-phase Shim-pack GIST C18 5 μm separation column (250 × 4.6 mm). For majority of the nucleotides including 1me-AMP, 1me-dAMP, 7me-dGMP, 6me-AMP, 7me-GMP, 3me-dCMP, dAMP, dCMP AMP, GMP, the column was equilibrated with mobile phase A (50 mM ammonium acetate) and mobile phase B (50 mM ammonium acetate, 50% of acetonitrile and 0.1% trifluoroacetic acid. For dGMP, different mobile phase A (50 mM ammonium acetate, 3% methanol, pH-5.0) and mobile phase B (methanol) were used. The peaks were identified based on the elution time of the standards (Fig. S9) purchased from Sigma and further analyzed using LabSolutions software (www.shimadzu.com) and analyzed by mass spectrometry.

ALKBH6 [3] = target: T1, ALKBH6; assay: FDH-coupled formaldehyde release demethylation assay; format: biochemical; conditions: for formaldehyde release / demethylation by ALKBH6: FDH-coupled assay, tested as substrate; for inhibition of ALKBH6-mediated demethylation: me-dNMPs as substrate
Protocol: (§3) NMPs including 1meAMP (Jena Bioscience, NU-1029-1,) 7meGMP (Jena Bioscience, NU-1135S), 6me-AMP (Sigma, M2780) were purchased. N-methylated deoxy-NMPs were prepared by methylating chemically synthesized 30-mer oligonucleotide containing either dA, dG, dC, or dT by MMS (5%, v/v) (0.59 M) MMS (Sigma, 129925) and purified as described before ([17]). The oligonucleotides were digested with nuclease P1 (NEB) at 37 °C for 4 h to produce deoxy-NMPs. After heat inactivating the nuclease, dNMPs were purified by HPLC and used for the demethylation reaction. N-methylated NMPs were purified similarly, using RNA as the starting material. For the demethylation reaction, ALKBH6 (1 μM) and me-dNMPs (1 mM) were mixed in the dioxygenase reaction buffer and incubated at 37 °C for 30 min. Formaldehyde release was detected by FDH-coupled DNA repair assay as described before ([32], [33]). Briefly, 1 mM NAD+ and 0.01 U FDH were added to the dioxygenase reaction buffer containing methylated nucleotide and ALKBH6. NADH generated was detected by the characteristic absorption peak (340 nm) using a 96-well multimode reader (Synergy, Biotek Instrument). Formaldehyde production was quantified from the standard curve and the initial velocities were determined using various substrate concentrations. The results were plotted and analyzed using GraphPad Prism.

AlkB = AlkB substrate; cited from earlier work
ALKBH3 = test system: ALKBH3; set-up: method as in PMID 28269980; conditions: cited from earlier work
ALKBH6 E115 mutant = target: T2, ALKBH6 E115 mutant (Homo sapiens, UniProt Q3KRA9, E115A); assay: FDH-coupled formaldehyde release demethylation assay; format: biochemical; conditions: substrate 500 μM
T2 construct: His-tag; made in house
T2 sequence (Q3KRA9 whole entry E115A): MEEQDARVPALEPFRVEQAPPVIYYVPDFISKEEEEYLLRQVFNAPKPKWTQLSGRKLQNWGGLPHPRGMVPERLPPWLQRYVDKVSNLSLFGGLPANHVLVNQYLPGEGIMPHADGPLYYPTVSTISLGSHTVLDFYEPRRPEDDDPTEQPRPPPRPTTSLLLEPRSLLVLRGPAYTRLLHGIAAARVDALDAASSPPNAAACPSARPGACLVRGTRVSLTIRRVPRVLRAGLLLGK
Protocol: as §3

ALKBH6 E115A = target: T3, ALKBH6 E115A (Homo sapiens, UniProt Q3KRA9, E115A); assay: Intrinsic tryptophan fluorescence quenching (Stern-Volmer); format: binding
T3 construct: His-tag; made in house
T3 sequence (Q3KRA9 whole entry E115A): as above
Protocol: as §1

ALKBH6 Y120A [4] = target: T4, ALKBH6 Y120A (Homo sapiens, UniProt Q3KRA9, Y120A); assay: as above; format: binding
T4 construct: His-tag; made in house
T4 sequence (Q3KRA9 whole entry Y120A): as the sequence (Q3KRA9 whole entry E115A) above, with A115E, Y120A counted along it
Protocol: as §1

ALKBH6 [5] = target: T1, ALKBH6; assay: Thermal shift analysis (DSF, SYPRO Orange); format: binding; conditions: from ΔTm vs ligand concentration; read-out: apparent dissociation constant
Protocol: (§4) All the experiments were performed in Eco Real-Time PCR system as described before ([55]). Purified recombinant His-tag ALKBH6 or ALKBH6-Y120A (5 μM) was incubated with varying concentrations (0–50 μM) of 7methyl-GMP in binding buffer (50 mM Hepes pH7.6, and 75 mM KCl). SYPRO Orange was added to the reaction (20 μl) and melting derivatives (-dRFU/dT) of fluorescence emission were determined by measuring the fluorescence with temperature increment of 0.1 °C from 40 °C to 100 °C. The ΔTm was calculated by subtracting Tm of ALKBH6 from Tm of ALKBH6 with 7methyl-GMP. The changes of Tm (ΔTm) were plotted against increasing concentrations of 7methyl-GMP and dissociation constant was determined by using one site specific binding formula of GraphPad Prism software.

ALKBH6 Y120A [6] = target: T4, ALKBH6 Y120A; assay: Thermal shift analysis (DSF, SYPRO Orange); format: binding
Protocol: as §4

ALKBH6 Y120A [7] = target: T4, ALKBH6 Y120A; assay: Demethylation assay by HPLC analysis; format: biochemical; conditions: substrate 500 μM
Protocol: as §2

MTH1 = test system: MTH1; set-up: method as in PMID 30304478; conditions: MTH1 substrate; cited from earlier work
ALKBH6 [8] = assay: ALKBH6 knockdown by shRNA, qPCR; format: cell-based, human; conditions: MCF7 cells, 48 h after transfection, vs Sh-control
From the text: The GFP-tagged ALKBH6 expression plasmids were constructed by cutting the PCR-amplified WT ALKBH6 with XhoI and EcoRI, and then cloned in-frame and upstream of the sequence encoding the GFP pEGFP-N1 (Clontech). ALKBH6 shRNA constructs were generated using reported sequences (shALKBH6#1 5′ AGGAGTATTTGCTTCGACA 3′, shALKBH6#2 5′ […] 3′) and cloned into the pSilencer 2.1-U6 puro shRNA vector. All the shRNA constructs were confirmed by sequencing (Fig. S6). For negative control, pSilencer 2.1-U6 puro vector was used.
MCF7 cells were maintained in Dulbecco's modified Eagle's medium (DMEM) with 10% fetal bovine serum at 37 °C in a humidified air containing 5% CO2. Stable ALKBH6 knockdown cell line was generated by inserting the target sequence for ALKBH6 or the scramble control into the pSilencer2.puro (pSil) vector (Ambion) to form short hairpin RNAs for RNAi. For plasmid transfection in MCF7 cells, cells were suspended in DMEM without fetal bovine serum or antibiotics at a concentration of 1 × 10^7 cells/ml. A volume of 0.1 ml was transferred to a sterile electroporation cuvette (Bio-Rad Gene Pulser cuvette) and kept at room temperature for 5 min in the presence of 15 μg plasmid. Electroporation was performed using the Gene Pulser Xcell System (Bio-Rad) with 220 V/cm, 950 μF capacitance, and infinite resistance. […]

[9] = substrate of ALKBH6, Michaelis-Menten

T1 sequence (Q3KRA9 whole entry): as the sequence (Q3KRA9 whole entry E115A) above, with A115E counted along it

## C[n+]1cnc2c(ncn2[C@@H]2O[C@H](COP(=O)(O)O)[C@@H](O)[C@H]2O)c1N [1me-AMP, N-1-methyl-adenosine monophosphate]
ALKBH6 [1]
  Stern-Volmer constant (Ksv): 0.011 ± 0.002 µM⁻¹
ALKBH6 [2]
  demethylation by ALKBH6 (HPLC): converted to AMP

## Cn1cnc2c(ncn2[C@@H]2O[C@H](COP(=O)(O)OP(=O)(O)OP(=O)(O)O)[C@@H](O)[C@H]2O)c1=N [1me-ATP]
ALKBH6 [3]
  formaldehyde release / demethylation by ALKBH6: comparatively less

## Cn1c(N)nc2c(ncn2[C@@H]2O[C@H](COP(=O)(O)OP(=O)(O)OP(=O)(O)O)[C@@H](O)[C@H]2O)c1=O [1me-GTP]
ALKBH6 [1]
  Stern-Volmer constant (Ksv): 0.004 µM⁻¹

## Cn1cnc2c(ncn2[C@@H]2O[C@H](CO)[C@@H](O)[C@H]2O)c1=N [1me-adenosine, reference compound]
ALKBH6 [3]
  formaldehyde release / demethylation by ALKBH6: could not demethylate

## Cn1cnc2c(ncn2[C@H]2C[C@H](O)[C@@H](COP(=O)(O)O)O2)c1=N [1me-dAMP]
ALKBH6 [3]
  formaldehyde release / demethylation by ALKBH6: Formaldehyde release was observed
ALKBH6 [2]
  demethylation by ALKBH6 (HPLC): efficiently demethylate
AlkB
  Km: 2 µM
  kcat: 0.07 s⁻¹

## O=C(O)CCC(O)C(=O)O (stereo not shown) [2HG, 2-hydroxyglutarate, reference compound]
ALKBH6 [3]
  inhibition of ALKBH6-mediated demethylation: inhibited

## Cn1c(=N)ccn([C@H]2C[C@H](O)[C@@H](COP(=O)(O)O)O2)c1=O [3me-dCMP]
ALKBH6 [3]
  formaldehyde release / demethylation by ALKBH6: Formaldehyde release was observed
ALKBH6 [2]
  demethylation by ALKBH6 (HPLC): efficiently demethylate

## Cn1c(=N)cc[nH]c1=O [3meC, N-3-methylcytosine]
ALKBH3
  kcat: approximately 1.7 min^−1

## CNc1ncnc2c1ncn2[C@@H]1O[C@H](COP(=O)(O)O)[C@@H](O)[C@H]1O [6me-AMP]
ALKBH6 [3]
  formaldehyde release / demethylation by ALKBH6: did not observe any demethylation
ALKBH6 [2]
  demethylation by ALKBH6 (HPLC): did not observe any demethylation

## C[n+]1cn([C@@H]2O[C@H](COP(=O)(O)O)[C@@H](O)[C@H]2O)c2nc(N)[nH]c(=O)c21 [7me-GMP, N-7-methyl-GMP]
ALKBH6 [3]
  formaldehyde release / demethylation by ALKBH6: Formaldehyde release was observed
ALKBH6 E115 mutant
  demethylation activity over time: comparable to WT ALKBH6
ALKBH6 [1]
  Stern-Volmer constant (Ksv): 0.036 ± 0.009 µM⁻¹
ALKBH6 E115A
  Stern-Volmer constant (Ksv): 0.035 ± 0.008 µM⁻¹
ALKBH6 Y120A [4]
  Stern-Volmer constant (Ksv): negative
ALKBH6 [5]
  Kd: 620 nM
ALKBH6 Y120A [6]
  ΔTm shift: no significant ΔTm shift
ALKBH6 [2]
  demethylation by ALKBH6 (HPLC): converted
ALKBH6 Y120A [7]
  demethylation (HPLC end product): little demethylation

## Cn1c[n+]([C@@H]2O[C@H](COP(=O)([O-])OP(=O)(O)OP(=O)(O)O)[C@@H](O)[C@H]2O)c2nc(N)[nH]c(=O)c21 [7me-GTP]
ALKBH6 [3]
  formaldehyde release / demethylation by ALKBH6: comparatively less
ALKBH6 [1]
  Stern-Volmer constant (Ksv): 0.007 µM⁻¹

## C[n+]1cn([C@H]2C[C@H](O)[C@@H](COP(=O)(O)O)O2)c2nc(N)[nH]c(=O)c21 [7me-dGMP]
ALKBH6 [3]
  formaldehyde release / demethylation by ALKBH6: Formaldehyde release was observed
ALKBH6 [3]; [9]
  Km: 1.03 µM
  kcat: 0.18 s⁻¹
ALKBH6 [2]
  demethylation by ALKBH6 (HPLC): efficiently demethylate

## Cn1c[n+]([C@@H]2O[C@H](CO)[C@@H](O)[C@H]2O)c2nc(N)[nH]c(=O)c21 [7me-guanosine, reference compound]
ALKBH6 [3]
  formaldehyde release / demethylation by ALKBH6: could not demethylate

## COc1nc(N)nc2c1ncn2[C@H]1C[C@H](O)[C@@H](COP(=O)(O)OP(=O)(O)OP(=O)(O)O)O1 [O6-methyl-dGTP]
MTH1
  Km: 13.2 µM
  kcat: 8.3 s⁻¹

## COc1nc(N)nc2c1ncn2[C@@H]1O[C@H](COP(=O)(O)OP(=O)(O)OP(=O)(O)O)[C@@H](O)[C@H]1O [O^6-methyl-GTP]
MTH1
  kcat: 0.3 s⁻¹

## O=C(O)CCC(=O)O [succinate, reference compound]
ALKBH6 [3]
  inhibition of ALKBH6-mediated demethylation: inhibited

## Sh #1: shRNA to ALKBH6, 5′ AGGAGTATTTGCTTCGACA 3′ in pSilencer 2.1-U6 puro vector (shRNA in pSilencer vector; only target-sense given)
ALKBH6 [8]
  reduction of ALKBH6 expression (knockdown): 75%

## Sh #2: shRNA to ALKBH6, 5′ GCACCACCTGTAATCTACTAT 3′ in pSilencer 2.1-U6 puro vector (shRNA in pSilencer vector; only target-sense given)
ALKBH6 [8]
  reduction of ALKBH6 expression (knockdown): more than 90%
